According to patent publication US20250057864A1, “COMPOSITION FOR IMPROVING EXERCISE PERFORMANCE COMPRISING GYPENOSIDE COMPOUND AS ACTIVE INGREDIENT” (BTC CORPORATION, priority 2022, published 2025):

Columns and labels:
[1] = test system: TFam, CPT1-β, mtDNA in C2C12 cells; test: mRNA expression related with mitochondrial replication in C2C12 cells (real-time RT-PCR); assay type: cell-based, mice; conditions: C2C12, 0.36 μg/mL (Cr 5 μg/mL), control G1 = 1.00
Description: C2C12 cells were dispensed into a 6-well plate at 2×10^5 cells/well and stabilized for 24 hours. In order to investigate the effect of each test substance on muscle cell differentiation, each test substance was added to the myocyte differentiation medium. The cells were cultured for 4 days (mRNA analysis) or 7 days (protein analysis) after exchanging the cell culture medium with the myocyte differentiation medium treated with each test substance, as shown in Table 2.
C2C12 cells were dispensed into a 6-well plate at 2×10^5 cells/well and stabilized for 24 hours. The cells were cultured for 2 or 4 days after replacing the cell culture with a myocyte differentiation medium containing the test substance. After collecting the cells, total RNA was isolated using an RNeasy Plus Mini kit (QIAGEN), and quantified using a micro-volume spectrophotometer (BioSpec-nano, Shimadzu). RNAs with an OD260/280 value greater than 1.8 were used for experiment.
After obtaining cDNA from the total RNA (2 μg) using a HyperScript™ RT master mix kit (GeneAll Biotechnology), real-time PCR was performed using a Rotor-Gene 300 PCR kit (Corbett Research) and a Rotor-Gene™ SYBR Green kit (QIAGEN). Quantitative analysis of the gene expression was performed using the Rotor-Gene 6000 Series System Software program (Corbett Research).
The effect of the treatment of C2C12 cells with the test substances on the mRNA expression of mtDNA, Tfam and CPT-1β associated with mitochondrial replication was investigated.

[2] = test system: ICR mice; test: Weight of liver and muscles; assay type: in vivo; conditions: 6 weeks
Description: (§1) After an acclimatization period of 1 week, healthy animals were selected and divided into 6 groups according to the randomized block design. The animals were divided into (G1) a non-exercise control group, (G2) a non-exercise+7 mg/kg body weight (BW) Example 1 group, (G3) a non-exercise+7 mg/kg BW Example 2 group, (G4) a non-exercise+7 mg/kg BW Example 3 group, (G5) a non-exercise+7 mg/kg BW Example 4 group, (G6) an exercise control group, (G7) an exercise+7 mg/kg BW Example 1 group, (G8) an exercise+7 mg/kg BW Example 2 group, (G9) an exercise+7 mg/kg BW Example 3 group, (G10) an exercise+7 mg/kg BW Example 4 group, and (G11) an exercise+75 mg/kg BW Cr dose group. Each test group consisted of 10 animals.
Before sacrificing, the experimental animal was anesthetized using an anesthetic prepared by dilution of tribromoethanol with tertiary amyl alcohol and blood was taken from the eye socket. The blood was placed in a serum-separating tube (Becton Dickinson) and left at room temperature for 30 minutes, centrifuged at 5,000 rpm for 10 minutes to separate the serum, and kept at −70° C. until analysis. After the blood sampling, the experimental animal was sacrificed and the liver and skeletal muscles [quadriceps femoris muscle (QF), gastrocnemius muscle (GA), soleus muscle (SOL), and extensor digitorum longus muscle (EDL)] were extracted. Their weight was measured after rinsing with cold physiological saline and removing excess water with filter paper. A portion of the soleus muscle (SOL) was fixed with 4% paraformaldehyde (PFA) and then embedded in paraffin for histoimmunological staining. Also, total RNA was isolated from a portion of the soleus muscle and subjected to real-time RT-PCR. Proteins were isolated from a portion of the gastrocnemius muscle (GA) and subjected to western blot. The remaining tissue was kept at −70° C. until analysis.
After the end of the test, the weight of the muscles and liver of the experimental animals was measured.
Since the body weight of the experimental animals was decreased due to exercise and the administration of the test substances, the relative weight of the muscles and liver per 100 g of body weight was calculated and shown in Table 23.

[3] = test system: PGC1α, AMPK, p38, Nrf2 in gastrocnemius muscle (GA); test: Western blot of proteins associated with PGC-1α activation in gastrocnemius muscle (GA); assay type: in vivo, ICR mice
[4] = test system: soleus muscle (SOL); test: mRNA expression in soleus muscle (SOL), real-time RT-PCR; assay type: in vivo, ICR mice
Description: as §1
Total RNA was isolated from the muscle tissue (SOL) collected at the end of the test using a TRizol reagent (Thermo Fisher Scientific), and quantified using a micro-volume spectrophotometer (BioSpec-nano, Shimadzu). RNAs with OD260/280 values above 1.8 were used for experiment. After obtaining cDNA from the total RNA (2 μg) using a HyperScript™ RT master mix kit (GeneAll Biotechnology), real-time PCR was performed using a Rotor-Gene 300 PCR kit (Corbett Research) and a Rotor-Gene™ SYBR Green kit (QIAGEN). Quantitative analysis of the gene expression was performed using the Rotor-Gene 6000 Series System Software program (Corbett Research).
Muscle can be classified into slow muscle and fast muscle depending on the physiological rate of contraction. […] Therefore, the effect of endurance exercise training and the administration of the test substances on the expression of antioxidant-related genes (SOD2, GPx1, UCP2, UCP3), LDH-related genes (ERRα, LDH B, MCT1), mitochondrial synthesis-related genes (Tfam, CPT-1β, mtDNA, NRF1) and energy metabolism-related genes (PGC-1α, GYS, PPARγ, PPARδ) in the soleus muscle, which is a slow muscle, was investigated.

[5] = treadmill exercise, 7 mg/kg BW (Cr 75 mg/kg BW)
[6] = GA muscle, treadmill exercise, 7 mg/kg BW (Cr 75 mg/kg BW), G1 = 1.00
[7] = SOL muscle, treadmill exercise, 7 mg/kg BW (Cr 75 mg/kg BW), G1 = 1.00
[8] = GA muscle, non-exercise, 7 mg/kg BW, G1 = 1.00
[9] = SOL muscle, non-exercise, 7 mg/kg BW, G1 = 1.00

With `CN(CC(=O)O)C(=N)N.O` [Cr, Creatine monohydrate, reference compound] the “mRNA expression CPT1-β” value [1] was 0.93 ± 0.20, the “mRNA expression Tfam” value [1] was 0.48 ± 0.07 and the “Relative weight of extensor digitorum longus muscle (EDL)” value (“Relative weight … (EDL)” for short) [2, 5] was 0.059 ± 0.004 g/100 g body weight. For the same compound, the “Relative weight of gastrocnemius muscle (GA)” value (“Relative weight … (GA)” below) [2, 5] was 1.078 ± 0.028^ g/100 g body weight, the “Relative weight of quadriceps femoris muscle (QF)” value (from here on “Relative weight … (QF)”) [2, 5] was 0.873 g/100 g body weight and the “Relative weight of soleus muscle (SOL)” value [2, 5] was 0.061 g/100 g body weight. The “Weight of extensor digitorum longus muscle (EDL)” value [2, 5] was 0.022 ± 0.001 g, the “Weight of gastrocnemius muscle (GA)” value [2, 5] was 0.409 ± 0.012 g and the “Weight of quadriceps femoris muscle (QF)” value [2, 5] was 0.330 g. For the same compound, the “Weight of soleus muscle (SOL)” value [2, 5] was 0.023 g, the p-AMPK/AMPK ratio [3, 6] was 1.43 ± 0.13 and the p-Nrf2/Nrf2 ratio [3, 6] was 1.35 ± 0.17. For the same compound, the p-PGC1α/PGC1α ratio [3, 6] was 2.28 ± 0.84^++, the p-p38/p38 ratio [3, 6] was 1.94 ± 0.16^+ and the “mRNA expression CPT-1β” value [4, 7] was 0.95 ± 0.28^++. For the same compound, the “mRNA expression ERRα” value [4, 7] was 0.58 ± 0.19^+, the “mRNA expression GPx1” value [4, 7] was 1.92 ± 0.29^+ and the “mRNA expression GSY” value [4, 7] was 0.92 ± 0.31. For the same compound, the “mRNA expression LDH B” value [4, 7] was 0.35 ± 0.11^+, the “mRNA expression MCT1” value [4, 7] was 0.99 ± 0.31^++ and the “mRNA expression NRF1” value [4, 7] was 9.17 ± 2.18. For the same compound, the “mRNA expression PGC1α” value [4, 7] was 5.09 ± 1.22^+, the “mRNA expression PPARγ” value [4, 7] was 0.29 ± 0.05 and the “mRNA expression PPARδ” value [4, 7] was 3.82 ± 0.90^++. The “mRNA expression SOD2” value [4, 7] was 1.52 ± 0.08^+, the “mRNA expression Tfam” value [4, 7] was 1.34 ± 0.07^ and the “mRNA expression UCP2” value [4, 7] was 14.96 ± 1.96^+++. For the same compound, the “mRNA expression UCP3” value [4, 7] was 0.87 ± 0.22 and the “mRNA expression mtDNA” value [4, 7] was 1.69 ± 0.20^.
With `CC(C)=CCC[C@](C)(O)C1CC[C@]2(C)C1[C@H](O)CC1[C@@]3(C)C[C@@H](O)C(OC4OC(CO)C(O)C(O)C4OC4OC(CO)C(O)C(O)C4O)C(C)(C)C3CC[C@]12C` (some centres unmarked) [Example 1, Gypenoside L] the “mRNA expression CPT1-β” value [1] was 1.83 ± 0.41, the “mRNA expression Tfam” value [1] was 0.91 ± 0.10 and the “mRNA expression mtDNA” value [1] was 1.29 ± 0.41. For the same compound, the “Relative weight … (EDL)” value ([2]; non-exercise, 7 mg/kg BW) was 0.056 ± 0.002 g/100 g body weight, the “Relative weight … (GA)” value ([2]; non-exercise, 7 mg/kg BW) was 1.040 ± 0.036^ g/100 g body weight and the “Relative weight … (QF)” value ([2]; non-exercise, 7 mg/kg BW) was 0.742 g/100 g body weight. The “Relative weight of soleus muscle (SOL)” value ([2]; non-exercise, 7 mg/kg BW) was 0.056 g/100 g body weight, the “Weight of extensor digitorum longus muscle (EDL)” value ([2]; non-exercise, 7 mg/kg BW) was 0.021 ± 0.001 g and the “Weight of gastrocnemius muscle (GA)” value ([2]; non-exercise, 7 mg/kg BW) was 0.392 ± 0.010 g. For the same compound, the “Weight of quadriceps femoris muscle (QF)” value ([2]; non-exercise, 7 mg/kg BW) was 0.282 g, the “Weight of soleus muscle (SOL)” value ([2]; non-exercise, 7 mg/kg BW) was 0.021 g and the “Relative weight … (EDL)” value [2, 5] was 0.056 ± 0.003 g/100 g body weight. For the same compound, the “Relative weight … (GA)” value [2, 5] was 1.122 ± 0.032^+ g/100 g body weight, the “Relative weight … (QF)” value [2, 5] was 0.827 g/100 g body weight and the “Relative weight of soleus muscle (SOL)” value [2, 5] was 0.064 g/100 g body weight. The “Weight of extensor digitorum longus muscle (EDL)” value [2, 5] was 0.020 ± 0.001 g, the “Weight of gastrocnemius muscle (GA)” value [2, 5] was 0.406 ± 0.012 g and the “Weight of quadriceps femoris muscle (QF)” value [2, 5] was 0.296 g. For the same compound, the “Weight of soleus muscle (SOL)” value [2, 5] was 0.023 g, the p-AMPK/AMPK ratio ([3]; 7 mg/kg) was 1.41 ± 0.14 and the p-Nrf2/Nrf2 ratio ([3]; 7 mg/kg) was 1.30 ± 0.16. For the same compound, the p-PGC1α/PGC1α ratio ([3]; 7 mg/kg) was 1.98 ± 0.34^+, the p-p38/p38 ratio ([3]; 7 mg/kg) was 1.86 ± 0.13^+ and the p-AMPK/AMPK ratio [3, 8] was 1.22 ± 0.09. It also gave a p-Nrf2/Nrf2 ratio [3, 8] of 1.02 ± 0.06, a p-PGC1α/PGC1α ratio [3, 8] of 1.14 ± 0.07 and a p-p38/p38 ratio [3, 8] of 1.71 ± 0.16. The “mRNA expression CPT-1β” value ([4]; 7 mg/kg) was 0.86 ± 0.04^++, the “mRNA expression ERRα” value ([4]; 7 mg/kg) was 1.41 ± 0.22 and the “mRNA expression GPx1” value ([4]; 7 mg/kg) was 3.28 ± 0.36^++. For the same compound, the “mRNA expression GSY” value ([4]; 7 mg/kg) was 0.27 ± 0.06, the “mRNA expression LDH B” value ([4]; 7 mg/kg) was 1.26 ± 0.46 and the “mRNA expression MCT1” value ([4]; 7 mg/kg) was 0.56 ± 0.25^+. The “mRNA expression NRF1” value ([4]; 7 mg/kg) was 29.20 ± 3.10^++, the “mRNA expression PGC1α” value ([4]; 7 mg/kg) was 2.73 ± 0.51 and the “mRNA expression PPARγ” value ([4]; 7 mg/kg) was 5.82 ± 1.27^+. For the same compound, the “mRNA expression PPARδ” value ([4]; 7 mg/kg) was 2.42 ± 0.45^+, the “mRNA expression SOD2” value ([4]; 7 mg/kg) was 1.47 ± 0.13^+ and the “mRNA expression Tfam” value ([4]; 7 mg/kg) was 1.98 ± 0.42^+. For the same compound, the “mRNA expression UCP2” value ([4]; 7 mg/kg) was 6.91 ± 1.47^++, the “mRNA expression UCP3” value ([4]; 7 mg/kg) was 0.64 ± 0.10 and the “mRNA expression CPT-1β” value [4, 9] was 0.34 ± 0.02. The “mRNA expression ERRα” value [4, 9] was 1.67 ± 0.22, the “mRNA expression GPx1” value [4, 9] was 0.89 ± 0.10 and the “mRNA expression GSY” value [4, 9] was 2.60 ± 0.51. For the same compound, the “mRNA expression LDH B” value [4, 9] was 1.76 ± 0.49, the “mRNA expression MCT1” value [4, 9] was 0.41 ± 0.03 and the “mRNA expression NRF1” value [4, 9] was 15.52 ± 2.59. The “mRNA expression PGC1α” value [4, 9] was 0.88 ± 0.08, the “mRNA expression PPARγ” value [4, 9] was 0.25 ± 0.00 and the “mRNA expression PPARδ” value [4, 9] was 2.87 ± 0.95. The “mRNA expression SOD2” value [4, 9] was 1.16 ± 0.03, the “mRNA expression Tfam” value [4, 9] was 4.74 ± 0.32 and the “mRNA expression UCP2” value [4, 9] was 1.23 ± 0.05. The “mRNA expression UCP3” value [4, 9] was 0.51 ± 0.09, the “mRNA expression mtDNA” value [4, 9] was 1.29 ± 0.12 and the “mRNA expression mtDNA” value [4, 7] was 4.66 ± 0.64^++.
